Assay results as given in publication PMC12820809 (Biomacromolecules, 2025).
“And” between values parts separate entries of the source, which are not always exact repeats. Identical values can stand only once.

Key:
[1] = tested on: bone marrow cells from wildtype C57BL/6 mice (M-MDSCs, dendritic cells); format: cell-based; settings: 72 h, KR158 glioma conditioned media
[2] = tested on: THP-1STAT3-Luc cells; settings: 72 h, concentration beyond 1.23 μg/mL
[3] = in water at a concentration equivalent to 10 mg/mL of LLL12
[4] = target: STAT3; assay: pSTAT3 inhibition IC50, STAT3 luciferase reporter assay; format: cell-based, human; settings: THP-1STAT3-Luc cells, 72 h treatment, then IL-6 stimulation 5 h, luminescence
[5] = cited from earlier work

With `NS(=O)(=O)c1cccc2c1C(=O)c1cccc(O)c1C2=O` [LLL12] the “Ly6C+ M-MDSC population compared to vehicle control” value ([1]; 0.4 μg/mL and 0.04 μg/mL) was “statistically significant reduction”, the “CD86+ cells (APC activation)” value ([1]; 0.004-0.4 μg/mL) was “dose-dependent increase” and the “CD11c expression (CD11c+ cells) compared to vehicle” value ([1]; highest concentration (0.4 μM)) was “statistically significant increase”. For the same compound, the Cell death [2] was about 100%, the “Water solubility (visual)” value [3] was “poorly soluble” and the “IC50 of STAT3 inhibition” value [4] was 0.31 ± 0.05 µg/mL and 0.307 µg/mL. For the same compound, the LogP [5] was 2.596.
